Test system: AS4.3, AS8.2, AS8.4, and AU2.1 TCRs
Experiment: CD69 upregulation with peptide-pulsed K562 cells expressing HLA-B*27:05
Format: cell-based, human
Details: SKW-3 T cells expressing AS4.3, AS8.2, AS8.4, and AU2.1 TCRs; n = 3 biological replicates

Sequence	T cell response (CD69 upregulation) when peptide presented by HLA-B*27:05-expressing K562 cells
GQVMVVAPR [RNASEH2B^self]	robust T cell responses
LRQMLQAPH [MPP4^self]	robust T cell responses
